Publication doi:10.1101/2025.06.13.659494v2, “A cell-based degrader assessment platform facilitates discovery of functional NUDT5 PROTACs” (biorxiv, 2026)

Target: T1, NUDT5 (purified) (Homo sapiens, UniProt Q9UKK9)
T1 construct: homodimer
Experiment: enzyme-coupled malachite green assay
Type: biochemical
Conditions: […] ADP-ribose, pH […] Mg acetate, […] °C

## COc1cc(-c2nnc(Cn3c(N4CCNCC4)nc4c3c(=O)n(C)c(=O)n4C)o2)ccc1C [TH10184]
  IC50: TH10184 showed comparable biochemical inhibition and thermal shift to TH5427
